Data as given in PubChem BioAssay (NCI).
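96-well plates; 48 h exposure; 5 concentrations. Endpoints by linear interpolation between flanking doses. Not reached: highest tested concentration assigned. The concentration for 50% growth inhibition is given as GI50. The concentration for full growth arrest is given as TGI.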

How the values were obtained:
Assay in all cases: NCI anticancer screen, dose series, 48 h
SNB-75 CNS = system: SNB-75 CNS
MOLT-4 leukemia = system: MOLT-4 leukemia
UACC-257 melanoma = system: UACC-257 melanoma
K-562 leukemia = system: K-562 leukemia
TK-10 renal = system: TK-10 renal
ACHN renal = system: ACHN renal
NCI-H522 lung = system: NCI-H522 lung
CCRF-CEM leukemia = system: CCRF-CEM leukemia
SK-MEL-5 melanoma = system: SK-MEL-5 melanoma
SK-OV-3 ovarian = system: SK-OV-3 ovarian
UACC-62 melanoma = system: UACC-62 melanoma
NCI-H226 lung = system: NCI-H226 lung
A498 renal = system: A498 renal
M14 melanoma = system: M14 melanoma
SK-MEL-28 melanoma = system: SK-MEL-28 melanoma
UO-31 renal = system: UO-31 renal
HT29 colon = system: HT29 colon
NCI/ADR-RES ovarian = system: NCI/ADR-RES ovarian
BT-549 breast = system: BT-549 breast
HCC-2998 colon = system: HCC-2998 colon
MDA-MB-435 = system: MDA-MB-435
SN12C renal = system: SN12C renal
SF-539 CNS = system: SF-539 CNS
OVCAR-8 ovarian = system: OVCAR-8 ovarian
NCI-H23 lung = system: NCI-H23 lung
HOP-62 NSCLC = system: HOP-62 NSCLC
CAKI-1 renal = system: CAKI-1 renal
RPMI-8226 leukemia = system: RPMI-8226 leukemia
MDA-MB-231 breast = system: MDA-MB-231 breast
MALME-3M melanoma = system: MALME-3M melanoma
HOP-92 NSCLC = system: HOP-92 NSCLC
SW-620 colon = system: SW-620 colon
LOX IMVI melanoma = system: LOX IMVI melanoma
T-47D breast = system: T-47D breast
MCF7 breast = system: MCF7 breast
HCT-15 colon = system: HCT-15 colon
KM12 colon = system: KM12 colon
U251 CNS = system: U251 CNS
HS 578T breast = system: HS 578T breast
SNB-19 CNS = system: SNB-19 CNS
SF-295 CNS = system: SF-295 CNS
DU-145 prostate = system: DU-145 prostate
A549 NSCLC = system: A549 NSCLC
SF-268 CNS = system: SF-268 CNS
HL-60(TB) leukemia = system: HL-60(TB) leukemia
PC-3 prostate = system: PC-3 prostate
IGROV1 ovarian = system: IGROV1 ovarian
OVCAR-4 ovarian = system: OVCAR-4 ovarian
EKVX NSCLC = system: EKVX NSCLC
OVCAR-3 ovarian = system: OVCAR-3 ovarian
HCT-116 colon = system: HCT-116 colon
SR leukemia = system: SR leukemia
786-0 renal = system: 786-0 renal
NCI-H460 lung = system: NCI-H460 lung
COLO 205 colon = system: COLO 205 colon
SK-MEL-2 melanoma = system: SK-MEL-2 melanoma
OVCAR-5 ovarian = system: OVCAR-5 ovarian
RXF 393 renal = system: RXF 393 renal

## O=C1COCCN1c1ccc(NCc2cn(C(=O)c3ccc(Cl)cc3)c3ccccc23)cc1
SNB-75 CNS
  GI50: 2.6 µM
  TGI: 52.6 µM
MOLT-4 leukemia
  GI50: 5.66 µM
  TGI: 47.8 µM
UACC-257 melanoma
  GI50: 0.276 µM
  TGI: 1.7 µM
K-562 leukemia
  GI50: 1.84 µM
  TGI: 17 µM
TK-10 renal
  GI50: 0.148 µM
  TGI: 2.18 µM
ACHN renal
  GI50: 3.79 µM
  TGI: 27.5 µM
NCI-H522 lung
  GI50: 5.12 µM
  TGI: 35.9 µM
CCRF-CEM leukemia
  GI50: 5.62 µM
  TGI: > 100 µM
SK-MEL-5 melanoma
  GI50: 4.1 µM
  TGI: 16.3 µM
SK-OV-3 ovarian
  GI50: 2.27 µM
  TGI: 92.1 µM
UACC-62 melanoma
  GI50: 0.396 µM
  TGI: 3.37 µM
NCI-H226 lung
  GI50: 0.159 µM
  TGI: 0.543 µM
A498 renal
  GI50: 0.0306 µM
  TGI: 0.142 µM
M14 melanoma
  GI50: 7.92 µM
  TGI: > 100 µM
SK-MEL-28 melanoma
  GI50: 17.8 µM
  TGI: 80.9 µM
UO-31 renal
  GI50: 2.09 µM
  TGI: 16.5 µM
HT29 colon
  GI50: 3.79 µM
  TGI: > 100 µM
NCI/ADR-RES ovarian
  GI50: 5.77 µM
  TGI: 55.8 µM
BT-549 breast
  GI50: 4.37 µM
  TGI: 53.7 µM
HCC-2998 colon
  GI50: 12.1 µM
  TGI: 88.4 µM
MDA-MB-435
  GI50: 16.4 µM
  TGI: 50.1 µM
SN12C renal
  GI50: 4.96 µM
  TGI: 69.3 µM
SF-539 CNS
  GI50: 8.49 µM
  TGI: 26.2 µM
OVCAR-8 ovarian
  GI50: 5.04 µM
  TGI: > 100 µM
NCI-H23 lung
  GI50: 3.79 µM
  TGI: 52.1 µM
HOP-62 NSCLC
  GI50: 1.06 µM
  TGI: > 100 µM
CAKI-1 renal
  GI50: 0.0531 µM
  TGI: 1.8 µM
RPMI-8226 leukemia
  GI50: 2.13 µM
  TGI: 15.8 µM
MDA-MB-231 breast
  GI50: 4.61 µM
  TGI: 22.9 µM
MALME-3M melanoma
  GI50: 7.96 µM
  TGI: 24.9 µM
HOP-92 NSCLC
  GI50: 1.66 µM
  TGI: 15 µM
SW-620 colon
  GI50: 2.23 µM
  TGI: > 100 µM
LOX IMVI melanoma
  GI50: 5.53 µM
  TGI: 19.8 µM
T-47D breast
  GI50: 0.264 µM
  TGI: 83.8 µM
MCF7 breast
  GI50: 0.293 µM
  TGI: 15 µM
HCT-15 colon
  GI50: 4.07 µM
  TGI: 91.2 µM
KM12 colon
  GI50: 13.7 µM
  TGI: > 100 µM
U251 CNS
  GI50: 1.19 µM
  TGI: 25.8 µM
HS 578T breast
  GI50: 3.86 µM
  TGI: 39.1 µM
SNB-19 CNS
  GI50: 20.8 µM
  TGI: > 100 µM
SF-295 CNS
  GI50: 1.83 µM
  TGI: 33.5 µM
DU-145 prostate
  GI50: 8.76 µM
  TGI: > 100 µM
A549 NSCLC
  GI50: 3.36 µM
  TGI: > 100 µM
SF-268 CNS
  GI50: 13.4 µM
  TGI: 95.1 µM
HL-60(TB) leukemia
  GI50: 4.97 µM
  TGI: 20.9 µM
PC-3 prostate
  GI50: 4.78 µM
  TGI: 49.5 µM
IGROV1 ovarian
  GI50: 0.252 µM
  TGI: 8.51 µM
OVCAR-4 ovarian
  GI50: 0.494 µM
  TGI: 18.8 µM
EKVX NSCLC
  GI50: 17.2 µM
  TGI: > 100 µM
OVCAR-3 ovarian
  GI50: 1.21 µM
  TGI: 12.5 µM
HCT-116 colon
  GI50: 0.247 µM
  TGI: 19.8 µM
SR leukemia
  GI50: 3.08 µM
  TGI: > 100 µM
786-0 renal
  GI50: 2.7 µM
  TGI: > 100 µM
NCI-H460 lung
  GI50: 0.268 µM
  TGI: 12.7 µM
COLO 205 colon
  GI50: 3.28 µM
  TGI: 21.8 µM
SK-MEL-2 melanoma
  GI50: 2.19 µM
  TGI: 15.3 µM
OVCAR-5 ovarian
  GI50: 0.187 µM
  TGI: 0.622 µM
RXF 393 renal
  GI50: 3.09 µM
  TGI: 18.3 µM

## Cc1c(C(N)=O)sc2c1c(=O)n(Cc1ccccc1)c1nnc(S(=O)(=O)CC(=O)Nc3ccc(Cl)cc3)n21
SNB-75 CNS
  GI50: 2.15 µM
  TGI: 5.48 µM
MOLT-4 leukemia
  GI50: 15.6 µM
  TGI: 46.8 µM
UACC-257 melanoma
  GI50: 2.68 µM
  TGI: 7.88 µM
K-562 leukemia
  GI50: 15 µM
  TGI: 55.2 µM
TK-10 renal
  GI50: 4.38 µM
  TGI: 19.2 µM
ACHN renal
  GI50: 4.63 µM
  TGI: 20.6 µM
NCI-H522 lung
  GI50: 2.53 µM
  TGI: 6.73 µM
CCRF-CEM leukemia
  GI50: 10.9 µM
  TGI: 43.1 µM
SK-MEL-5 melanoma
  GI50: 6.02 µM
  TGI: 20.7 µM
SK-OV-3 ovarian
  GI50: 3.24 µM
  TGI: 7.81 µM
UACC-62 melanoma
  GI50: 4.21 µM
  TGI: 18.7 µM
NCI-H226 lung
  GI50: 4.83 µM
  TGI: 19.8 µM
A498 renal
  GI50: 1.26 µM
  TGI: 4.21 µM
M14 melanoma
  GI50: 5.3 µM
  TGI: 21.2 µM
SK-MEL-28 melanoma
  GI50: 2.98 µM
  TGI: 8.45 µM
UO-31 renal
  GI50: 2.86 µM
  TGI: 11.3 µM
HT29 colon
  GI50: 6.82 µM
  TGI: 26 µM
NCI/ADR-RES ovarian
  GI50: 20.2 µM
  TGI: 63.4 µM
BT-549 breast
  GI50: 2.92 µM
  TGI: 14.9 µM
HCC-2998 colon
  GI50: 18.7 µM
  TGI: > 100 µM
MDA-MB-435
  GI50: 3.61 µM
  TGI: 17 µM
SN12C renal
  GI50: 4.67 µM
  TGI: 28.2 µM
SF-539 CNS
  GI50: 2.75 µM
  TGI: 6.5 µM
OVCAR-8 ovarian
  GI50: 3.69 µM
  TGI: 15.6 µM
NCI-H23 lung
  GI50: 3.13 µM
  TGI: 9.71 µM
HOP-62 NSCLC
  GI50: 2.51 µM
  TGI: 5.99 µM
CAKI-1 renal
  GI50: 2.94 µM
  TGI: 11.8 µM
RPMI-8226 leukemia
  GI50: 39.1 µM
  TGI: > 100 µM
MDA-MB-231 breast
  GI50: 4.24 µM
  TGI: 18.5 µM
MALME-3M melanoma
  GI50: 3.96 µM
  TGI: 17.5 µM
HOP-92 NSCLC
  GI50: 2.26 µM
  TGI: 6.63 µM
SW-620 colon
  GI50: 4.87 µM
  TGI: 20.4 µM
LOX IMVI melanoma
  GI50: 6.15 µM
  TGI: 20.6 µM
T-47D breast
  GI50: 3.89 µM
  TGI: 14.3 µM
MCF7 breast
  GI50: 4.76 µM
  TGI: 70.2 µM
HCT-15 colon
  GI50: 38.6 µM
  TGI: > 100 µM
KM12 colon
  GI50: 4.54 µM
  TGI: 16.2 µM
U251 CNS
  GI50: 1.99 µM
  TGI: 4.25 µM
HS 578T breast
  GI50: 2.67 µM
  TGI: > 100 µM
SNB-19 CNS
  GI50: 7.7 µM
  TGI: 23.3 µM
SF-295 CNS
  GI50: 3.28 µM
  TGI: 26.2 µM
DU-145 prostate
  GI50: 7.29 µM
  TGI: 36.7 µM
A549 NSCLC
  GI50: 2.3 µM
  TGI: 6.04 µM
SF-268 CNS
  GI50: 6.8 µM
  TGI: 27.4 µM
HL-60(TB) leukemia
  GI50: 40.7 µM
  TGI: > 100 µM
PC-3 prostate
  GI50: 2.58 µM
  TGI: 9.3 µM
IGROV1 ovarian
  GI50: 8.57 µM
  TGI: 24.3 µM
OVCAR-4 ovarian
  GI50: 1.93 µM
  TGI: 5.47 µM
EKVX NSCLC
  GI50: 5.89 µM
  TGI: 27.4 µM
OVCAR-3 ovarian
  GI50: 5.27 µM
  TGI: 18 µM
HCT-116 colon
  GI50: 2.1 µM
  TGI: 5.22 µM
SR leukemia
  GI50: 6.71 µM
  TGI: 30.3 µM
786-0 renal
  GI50: 3.07 µM
  TGI: 12.2 µM
NCI-H460 lung
  GI50: 2.87 µM
  TGI: 7.64 µM
COLO 205 colon
  GI50: 10.7 µM
  TGI: 27.5 µM
SK-MEL-2 melanoma
  GI50: 2.83 µM
  TGI: 7.18 µM
OVCAR-5 ovarian
  GI50: 10.9 µM
  TGI: 52.1 µM
RXF 393 renal
  GI50: 2.41 µM
  TGI: 7.13 µM
